Patent US20260373135A1, “Methods of Treatment with Tradipitant” (Vanda Pharmaceuticals Inc., priority 2022, published 2026)

Experiments:
CYP3A4 = CYP3A4 (Homo sapiens, UniProt P08684); experiment: Co-administration of tradipitant with a CYP3A4 inhibitor; assay type: in vivo
Protocol: The method may further include administering tradipitant to the individual at a dose that is determined based upon whether or not a CYP3A4 inhibitor is co-administered with the tradipitant. In a case in which a CYP3A4 inhibitor is not being co-administered to the individual, the method includes administering tradipitant to the individual in a first amount, in a manner similar to the above-described case in which the individual has a CYP3A4 genotype associated with normal metabolism of tradipitant. However, in a case in which a CYP3A4 inhibitor is co-administered with tradipitant to the individual, then the method may include administering tradipitant to the individual in a second ament, where the second amount is smaller than the first amount, in a manner similar to the above-described case in which the individual has a CYP3A4 genotype that is associated with decreased metabolism of tradipitant relative to wildtype. In certain embodiments, the CYP3A4 inhibitor may be selected from amiodarone, aprepitant, cimetidine, ciprofloxacin, clarithromycin, diltiazem, erythromycin, fluconazole, grapefruit juice, itraconazole, ketoconazole, posaconazole, voriconazole, and verapamil. In particular embodiments, the CYP3A4 inhibitor may be considered a strong CYP3A4 inhibitor, and may be selected from: clarithromycin, itraconazole, ketoconazole, and posaconazole, or from ketoconazole and grapefruit juice.
As described above, in certain embodiments, the second, smaller amount of tradipitant may be about 60-90%, 60-85%, 60-80%, 60-75%, or 60-70% of the first amount; about 25-70%, 30-70%, 35-70%, 40-70%, 45-70%, 50-70%, 55-70%, or 60-70% of the first amount; about 35-95%, 40-90%, 50-80%, or 60-70% of the first amount; or about 66-68% of the first amount. The first amount is considered to be 100% of the amount that would be administered to an individual who is […] a CYP3A4 inhibitor with the tradipitant.
Therefore, the identification of an individual in need of treatment with tradipitant, who is or would be co-administered tradipitant and the CYP3A4 inhibitor, enables dosing with tradipitant in a manner that facilitates the desired exposure level of the patient to the parent compound and any active metabolites thereof. […]

NK-1 receptors = conditions: preclinical and clinical studies; cited from earlier work
[1] = Human metabolism of tradipitant in vitro and in vivo
Description: Factors affecting metabolic clearance of tradipitant and its metabolites impact an individual's exposure to the parent compound, as well as any active metabolites.

[2] = co-administration with a CYP3A4 inhibitor

Chain of CYP3A4 (P08684 whole entry): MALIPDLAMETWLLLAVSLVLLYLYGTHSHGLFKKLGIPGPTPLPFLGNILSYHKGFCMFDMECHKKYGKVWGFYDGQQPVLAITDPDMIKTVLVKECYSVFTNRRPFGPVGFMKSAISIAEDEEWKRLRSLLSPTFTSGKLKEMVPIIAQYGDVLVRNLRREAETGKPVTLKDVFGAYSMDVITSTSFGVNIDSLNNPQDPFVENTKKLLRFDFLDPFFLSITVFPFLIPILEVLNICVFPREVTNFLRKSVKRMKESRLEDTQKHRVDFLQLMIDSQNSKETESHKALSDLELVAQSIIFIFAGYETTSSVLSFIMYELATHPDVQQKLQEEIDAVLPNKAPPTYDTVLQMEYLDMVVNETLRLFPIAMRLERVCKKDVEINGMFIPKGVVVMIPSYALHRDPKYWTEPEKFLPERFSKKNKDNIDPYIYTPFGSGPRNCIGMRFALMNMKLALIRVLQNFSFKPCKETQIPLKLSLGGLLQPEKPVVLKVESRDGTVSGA

SMILES: O=C(c1ccccc1Cl)c1cccnc1-c1nnn(Cc2cc(C(F)(F)F)cc(C(F)(F)F)c2)c1-c1ccncc1 [tradipitant, {2-[1-(3,5-Bistrifluoromethylbenzyl)-5-pyridin-4-yl-1H-[1,2,3]triazol-4-yl]-pyridin-3-yl}-(2-chlorophenyl)-methanone]
- exposure to tradipitant with CYP3A4 inhibitors (CYP3A4; co-administration with CYP3A4 inhibitors, particularly strong): increased exposure to tradipitant
- decrease in apparent clearance (CYP3A4; [2]): about 26.3%
- increase in AUC (CYP3A4; [2]): about 36%
- increase in Cmax (CYP3A4; [2]): about 26%
- blockade of brain NK-1 receptors (NK-1 receptors): long-lasting blockade of brain NK-1 receptors
- human metabolic pathways [1]: ketone reduction (metabolites M2, M4), N-glucuronidation (metabolite M8), pyridine N-oxidation (metabolites M3, M4), and glucuronidation (metabolite M8)
